This note sets out measurements from paper PMC10824666 (Nature Cancer, 2023).

Where two headings read alike, the source gives them in different places.

Holding throughout (test): biochemical
Common to all, as to design: Eurofins DiscoverX kinase panel, competitive binding assay at 1 uM, percent of DMSO control
Common to all, as to conditions: competitive binding, percent of DMSO control

One test deals with T1, Abl_phos (Homo sapiens, UniProt P00519).
T1 construct: gene ABL1; phosphorylated
In outline: (§1)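 Competitive binding assay across a 96-kinase panel with KIF18A compounds at 1 µM; values given as percentage of control (POC), single experiment.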

The next test has as its target CDK2 (Homo sapiens, UniProt P24941). In outline: as §1
Another test has as its target GSK3B (Homo sapiens, UniProt P49841). In outline:
as §1

The next test deals with LYN (Homo sapiens, UniProt P07948). In outline: as §1
LYN, sequence (P07948 whole entry): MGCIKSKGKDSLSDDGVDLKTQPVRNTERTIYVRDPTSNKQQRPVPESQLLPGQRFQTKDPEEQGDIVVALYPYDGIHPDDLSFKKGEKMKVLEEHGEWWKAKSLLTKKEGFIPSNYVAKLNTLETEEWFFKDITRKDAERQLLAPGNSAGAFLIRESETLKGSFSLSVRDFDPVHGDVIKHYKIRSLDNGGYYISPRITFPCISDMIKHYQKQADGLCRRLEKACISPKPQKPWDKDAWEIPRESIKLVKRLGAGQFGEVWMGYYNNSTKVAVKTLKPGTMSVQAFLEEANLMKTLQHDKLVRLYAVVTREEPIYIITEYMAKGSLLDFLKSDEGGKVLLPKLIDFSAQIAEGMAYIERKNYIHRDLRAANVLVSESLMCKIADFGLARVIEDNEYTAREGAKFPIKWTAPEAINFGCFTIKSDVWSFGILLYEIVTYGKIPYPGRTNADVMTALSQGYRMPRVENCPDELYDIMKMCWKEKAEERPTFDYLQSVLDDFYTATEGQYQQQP
The target of another test is MAP4K1 (Homo sapiens, UniProt Q92918). In outline: as §1
MAP4K1, sequence (Q92918 whole entry): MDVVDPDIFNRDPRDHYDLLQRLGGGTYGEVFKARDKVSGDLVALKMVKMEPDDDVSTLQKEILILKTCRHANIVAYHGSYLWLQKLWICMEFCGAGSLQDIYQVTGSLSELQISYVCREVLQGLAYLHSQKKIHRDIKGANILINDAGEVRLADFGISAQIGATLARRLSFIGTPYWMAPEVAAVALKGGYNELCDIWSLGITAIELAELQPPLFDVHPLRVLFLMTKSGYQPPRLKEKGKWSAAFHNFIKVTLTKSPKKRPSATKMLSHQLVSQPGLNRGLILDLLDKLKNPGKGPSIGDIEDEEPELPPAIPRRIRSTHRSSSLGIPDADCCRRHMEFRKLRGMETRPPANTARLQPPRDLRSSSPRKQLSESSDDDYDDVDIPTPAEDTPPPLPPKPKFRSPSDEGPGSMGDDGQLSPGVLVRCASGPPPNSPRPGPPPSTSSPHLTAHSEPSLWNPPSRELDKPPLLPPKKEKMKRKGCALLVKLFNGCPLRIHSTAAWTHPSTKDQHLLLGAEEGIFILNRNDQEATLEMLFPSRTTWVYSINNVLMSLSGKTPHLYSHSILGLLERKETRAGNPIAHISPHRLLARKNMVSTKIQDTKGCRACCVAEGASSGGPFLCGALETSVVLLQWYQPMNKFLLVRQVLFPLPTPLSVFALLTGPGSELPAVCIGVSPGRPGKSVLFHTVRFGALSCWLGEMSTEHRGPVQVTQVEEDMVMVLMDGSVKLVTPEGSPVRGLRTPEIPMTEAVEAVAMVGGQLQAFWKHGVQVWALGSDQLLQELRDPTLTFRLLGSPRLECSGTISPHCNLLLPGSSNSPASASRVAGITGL
A further test has as its target T2, Mps1 (Homo sapiens, UniProt P33981).
T2 construct: gene TTK
T2 sequence (P33981 1-857): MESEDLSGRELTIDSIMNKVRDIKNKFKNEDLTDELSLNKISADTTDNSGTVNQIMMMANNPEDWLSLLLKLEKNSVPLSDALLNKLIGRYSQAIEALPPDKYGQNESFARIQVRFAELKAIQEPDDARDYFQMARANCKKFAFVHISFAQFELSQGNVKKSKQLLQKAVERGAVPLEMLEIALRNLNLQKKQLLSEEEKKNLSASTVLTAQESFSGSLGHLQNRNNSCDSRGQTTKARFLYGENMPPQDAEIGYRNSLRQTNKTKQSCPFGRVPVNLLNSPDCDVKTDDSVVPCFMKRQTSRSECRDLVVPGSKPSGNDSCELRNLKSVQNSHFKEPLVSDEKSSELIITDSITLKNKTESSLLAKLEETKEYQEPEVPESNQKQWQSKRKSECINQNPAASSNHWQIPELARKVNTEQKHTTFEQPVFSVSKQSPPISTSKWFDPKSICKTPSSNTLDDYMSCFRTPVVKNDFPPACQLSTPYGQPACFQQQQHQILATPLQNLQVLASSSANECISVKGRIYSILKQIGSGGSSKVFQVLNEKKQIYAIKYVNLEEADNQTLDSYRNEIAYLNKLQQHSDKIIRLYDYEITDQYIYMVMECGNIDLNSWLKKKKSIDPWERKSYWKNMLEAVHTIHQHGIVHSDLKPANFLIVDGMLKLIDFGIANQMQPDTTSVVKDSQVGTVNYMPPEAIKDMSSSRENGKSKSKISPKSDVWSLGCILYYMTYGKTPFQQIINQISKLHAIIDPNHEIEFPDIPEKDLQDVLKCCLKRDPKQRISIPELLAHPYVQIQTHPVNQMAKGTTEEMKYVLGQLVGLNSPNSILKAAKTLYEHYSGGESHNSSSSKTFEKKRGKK
In outline:
as §1

The target in a further test is SRC (Homo sapiens, UniProt P12931). In outline:
as §1

For a further test, the target named is mTOR (Homo sapiens, UniProt P42345). In outline:
as §1

The mark [1] stands for this setting: read-out: Kinome Profiling performed by Eurofins DiscoverX / AM-0277, 1.0 µM / POC.
The mark [2] stands for this setting: read-out: Kinome Profiling performed by Eurofins DiscoverX / AM-1882, 1.0 µM / POC.
The mark [3] stands for this setting: read-out: Kinome Profiling performed by Eurofins DiscoverX / AM-5308, 1.0 µM / POC.

T1 sequence (P00519 whole entry): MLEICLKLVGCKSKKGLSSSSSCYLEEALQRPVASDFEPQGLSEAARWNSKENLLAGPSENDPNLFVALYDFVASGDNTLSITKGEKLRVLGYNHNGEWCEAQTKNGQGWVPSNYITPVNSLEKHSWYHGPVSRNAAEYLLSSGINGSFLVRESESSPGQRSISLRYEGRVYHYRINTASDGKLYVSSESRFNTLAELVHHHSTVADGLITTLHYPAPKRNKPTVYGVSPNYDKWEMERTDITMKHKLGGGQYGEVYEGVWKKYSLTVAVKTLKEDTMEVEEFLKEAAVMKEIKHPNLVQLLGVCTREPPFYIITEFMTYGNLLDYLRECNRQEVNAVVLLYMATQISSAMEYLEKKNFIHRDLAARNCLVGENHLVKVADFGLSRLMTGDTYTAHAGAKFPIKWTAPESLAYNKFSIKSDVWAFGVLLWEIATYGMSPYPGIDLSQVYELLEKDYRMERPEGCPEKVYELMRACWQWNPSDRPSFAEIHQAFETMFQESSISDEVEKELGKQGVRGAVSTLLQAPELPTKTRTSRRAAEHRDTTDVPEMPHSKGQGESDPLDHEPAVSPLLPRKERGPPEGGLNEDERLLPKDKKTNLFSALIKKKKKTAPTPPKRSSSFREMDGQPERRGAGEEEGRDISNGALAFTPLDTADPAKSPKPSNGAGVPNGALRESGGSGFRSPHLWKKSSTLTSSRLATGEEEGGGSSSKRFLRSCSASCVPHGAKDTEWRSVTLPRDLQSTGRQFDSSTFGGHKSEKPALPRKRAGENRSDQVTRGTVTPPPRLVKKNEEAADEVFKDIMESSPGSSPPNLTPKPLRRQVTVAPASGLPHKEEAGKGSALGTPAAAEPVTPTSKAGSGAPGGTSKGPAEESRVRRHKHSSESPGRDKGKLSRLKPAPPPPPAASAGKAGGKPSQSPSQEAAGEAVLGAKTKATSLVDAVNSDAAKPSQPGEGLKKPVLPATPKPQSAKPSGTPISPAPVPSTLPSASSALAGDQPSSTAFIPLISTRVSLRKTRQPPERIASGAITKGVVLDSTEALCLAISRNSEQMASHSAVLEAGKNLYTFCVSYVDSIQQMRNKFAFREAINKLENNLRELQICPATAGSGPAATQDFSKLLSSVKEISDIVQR
SRC, sequence (P12931 whole entry): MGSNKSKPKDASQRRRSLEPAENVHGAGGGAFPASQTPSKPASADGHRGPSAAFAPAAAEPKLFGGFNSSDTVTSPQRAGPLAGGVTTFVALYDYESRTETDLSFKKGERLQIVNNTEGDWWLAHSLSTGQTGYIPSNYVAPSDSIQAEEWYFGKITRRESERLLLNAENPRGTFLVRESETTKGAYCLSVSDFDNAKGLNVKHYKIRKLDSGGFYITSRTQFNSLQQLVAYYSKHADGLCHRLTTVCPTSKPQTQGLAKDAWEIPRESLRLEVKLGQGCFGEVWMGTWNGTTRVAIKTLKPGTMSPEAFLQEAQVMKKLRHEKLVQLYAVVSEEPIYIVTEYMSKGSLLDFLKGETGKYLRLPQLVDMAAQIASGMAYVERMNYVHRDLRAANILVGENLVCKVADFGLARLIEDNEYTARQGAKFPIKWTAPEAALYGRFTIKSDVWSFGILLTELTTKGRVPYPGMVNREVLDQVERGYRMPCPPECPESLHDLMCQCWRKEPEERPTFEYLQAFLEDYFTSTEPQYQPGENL
GSK3B, sequence (P49841 whole entry): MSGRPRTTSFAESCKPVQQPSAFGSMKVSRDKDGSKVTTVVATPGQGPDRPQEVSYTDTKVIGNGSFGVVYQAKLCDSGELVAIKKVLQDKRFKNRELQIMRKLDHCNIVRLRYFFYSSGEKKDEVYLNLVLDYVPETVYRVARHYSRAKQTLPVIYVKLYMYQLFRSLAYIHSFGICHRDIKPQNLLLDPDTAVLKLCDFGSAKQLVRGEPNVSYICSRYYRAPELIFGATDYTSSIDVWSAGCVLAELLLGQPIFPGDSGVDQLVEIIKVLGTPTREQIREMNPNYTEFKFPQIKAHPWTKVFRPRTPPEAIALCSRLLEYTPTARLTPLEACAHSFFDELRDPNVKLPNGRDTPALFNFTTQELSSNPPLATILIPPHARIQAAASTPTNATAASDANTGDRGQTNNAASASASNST

For `CC(C)(CO)Nc1ccc(C(=O)Nc2cccc(S(=O)(=O)C3CCCC3)c2)c(N2CCC3(CC2)CC3)n1` [AM-0277], the remaining activity at 1 µM was 46% at Abl_phos (setting [1]); 97% at CDK2 (setting [1]); 100% on GSK3B (setting [1]); 100% on LYN (setting [1]); 88% on MAP4K1 (setting [1]); 76% on Mps1 (setting [1]). Further, the values for the remaining activity at 1 µM at SRC (setting [1]) and at mTOR (setting [1]) were 89% and 100%, respectively.
With `CC(C)(C)NS(=O)(=O)c1cccc(NC(=O)c2ccc(S(=O)(=O)NC(C)(C)C)cc2N2CCC3(CC2)CC3)c1` [AM-1882], the remaining activity at 1 µM at Abl_phos (setting [2]) turned out to be 63.5%; at CDK2 (setting [2]), 100%; on GSK3B (setting [2]), 100%; at LYN (setting [2]), 99.5%; at MAP4K1 (setting [2]) it was 90%; at Mps1 (setting [2]) it was 97%. Moreover, the remaining activity at 1 µM worked out at 98% at SRC (setting [2]) and 98.5% at mTOR (setting [2]).
Take `C[C@@H]1CN(c2cccc(NC(=O)c3ccc(NS(=O)(=O)CCO)cc3N3CCC4(CC3)CC4)n2)CCO1` [AM-5308]: the remaining activity at 1 µM on Abl_phos (setting [3]) turned out to be 98.5%; at CDK2 (setting [3]) it was 94.5%; on GSK3B (setting [3]), 100%; at LYN (setting [3]) it was 86.5%; on MAP4K1 (setting [3]), 98.5%; on Mps1 (setting [3]) it was 47%. Further, the remaining activity at 1 µM at SRC (setting [3]) came to 96.5%; on mTOR (setting [3]) it was 100%.
